Assay results taken from publication PMC10950897, “VCF1 is a p97/VCP cofactor promoting recognition of ubiquitylated p97-UFD1-NPL4 substrates” (Nature Communications, 2024).
“Also recorded” adds a separate entry of the source.

Experiments:
[1] = system: p97; test: IP of endogenous VCF1 from U2OS cells; format: binding, human
Description: (§1) Immunoblotting was performed as previously described. Immunoprecipitation (IP) of HA-tagged proteins was performed using Anti-HA Affinity matrix (Roche) under denaturing conditions, unless otherwise stated. GFP-trap and […] Fab-trap agarose (Chromotek) were used according to manufacturer’s instructions. Cell lysis was performed using RIPA buffer (140 mM NaCl; 10 mM Tris-HCl, pH 8.0; 0.1% sodium deoxycholate; 1% Triton X-100; 0.1% SDS; 1 mM EDTA; 0.5 mM EGTA) or EBC buffer (50 mM Tris, pH 7.5; 150 mM NaCl; 1 mM EDTA; 0.5% NP-40, 1 mM DTT). IPs were washed in non-denaturing buffer (50 mM Tris-HCl, pH 7.5; 150 mM NaCl; 0.5 mM EDTA). Cell lysis and IP under partially denaturing conditions were performed using denaturing buffer (20 mM Tris-HCl, pH 7.5; 50 mM NaCl; 0.5% sodium deoxycholate; 0.5% NP-40; 0.5% SDS; 1 mM EDTA). All lysis and wash buffers were supplemented with 1 mM fresh PMSF Protease Inhibitor (Thermo), complete EDTA-free protease inhibitor Cocktail Tablets (Roche), 1.25 mM N-ethylmaleimide (Sigma) and 50 µM PR-619 (Calbiochem).

[2] = system: p97-UFD1-NPL4 binding to ubiquitylated proteins; test: FLAG IP: p97-UFD1-NPL4 binding to ubiquitylated proteins in U2OS cell extracts; format: biochemical, human; details: U2OS total cell extracts, EBC buffer
Description: All in vitro binding experiments were performed in EBC or RIPA buffer as indicated. Recombinant Biotin-tagged K48-linked poly-ubiquitin chains (2−7) and K48-linked poly-ubiquitin chains (2−16) were purchased from R&D Systems and Enzo Life Science, respectively. Recombinant proteins were incubated with Strep-Tactin Sepharose (IBA), Glutathione agarose (Gold Biotechnology) or […] Fab-trap agarose (ChromoTek) overnight on an end-over-end rotator at 4 °C, washed six times with EBC or RIPA buffer, and resuspended in 2×Laemmli sample buffer. For p97, VCF1 or p47 pulldowns, antibodies (0.5 µg/sample) were coupled to agarose beads, incubated with recombinant proteins or cell lysates and washed with the indicated buffer. To assess p97-UFD1-NPL4 binding to ubiquitylated proteins in total cell extracts, U2OS cells were lysed in EBC buffer supplemented with protease and phosphatase inhibitors, sonicated and incubated on ice for 10 min. Lysates were cleared by centrifugation for 10 min at 16,100 × g. Cell lysate (40 µg) was added to recombinant proteins in EBC buffer, incubated overnight on the rotator with […] Fab-trap agarose (ChromoTek), and beads were washed six times.

[3] = system: C1QBP; histone H3 (U2OS/GFP-VCF1 cells); test: GFP IP immunoblot for C1QBP and Histone H3; format: binding, human; details: U2OS/GFP-VCF1 WT
Description: as §1

[4] = system: p97 hexamer (His6-p97); test: Mass photometry; format: binding, human; details: saturating VCF1, absence of other cofactors
Description: Mass photometry experiments were performed on a Refeyn One (Refeyn Ltd) mass photometer at room temperature. Measurements were run in triplicates, diluting 3 μl of protein sample (20 nM) in 15 μl PBS buffer loaded on a gasket (Grace Bio-Labs reusable CultureWell gaskets (GBL103250, Merck)) mounted on a glass microscope coverslip (0107222, Marienfeld). Experiments were performed with His6-p97 alone and in presence of saturating concentrations of full-length Strep-HA-VCF1. The molecular weight was obtained by contrast comparison with known molecular weight mass standard calibrants (NativeMark Unstained Protein Standard (LC0725), Thermo Fischer Scientific) measured on the same buffer and on the same day. Movies were recorded using AcquireMP (Refeyn Ltd, version 2022 R1), with a medium field of view and exposure time of 0.95 ms for the acquisition camera settings. A total of 6000 frames were recorded over a duration of one minute. Movies were processed and analysed with the DiscoverMP software (Refeyn Ltd, version 2022 R1) provided by the instrument manufacturer.

[5] = system: p97 with poly-ubiquitylated mEos3.2; test: In vitro p97 unfoldase assay (mEos3.2); format: biochemical, human; details: p97 100 nM hexamer, UFD1-NPL4 500 nM, VCF1 300 nM, 37 °C
Description: Di-ubiquitin-fused mEos3.2 fluorescent protein (diUb-mEos3.2) and ubiquitylation cascade proteins mUbe1, gpc78-ubc7 fusion and ubiquitin were recombinantly expressed in E. coli and purified as described previously. diUb-mEos3.2 substrate was enzymatically polyubiquitylated as described previously. […] The unfolding activity of p97 was monitored in vitro by measuring the decrease in diUb^n-mEos3.2 fluorescence. For this, diUb^n-mEos3.2 (35 nM), p97 (100 nM hexamer), UFD1-NPL4 (500 nM) and VCF1 (300 nM) were mixed as indicated in Eos assay buffer (50 mM HEPES, pH 7.5; 150 mM KCl; 2 mM MgCl2; 5% glycerol; 1 mM DTT) and pre-warmed to 37 °C for 5 min before ATP (2 mM) was added to start the reaction. Unfolding of red mEos3.2 fluorescence was measured every 15 s in a Varian Cary Eclipse spectrofluorometer (excitation: 500 nm; emission: 520 nm) and normalized to the first value after addition of ATP.

“VCF1: human FAM104A isoform 1, 186 amino acids (UniProt Q969W3); recombinant Strep-HA-tagged” was tested, and the “interaction of endogenous VCF1 with p97” value ([1]; U2OS whole cell lysates) was “validate an interaction between endogenous VCF1 and p97”, the “endogenous NPL4 in endogenous VCF1 IP” value ([1]; U2OS, along with p97) was “NPL4 could be detected in endogenous VCF1 IPs along with p97” and the “effect on p97-UFD1-NPL4 binding to ubiquitylated proteins” value [2] was “prominent ability of VCF1 to enhance p97-UFD1-NPL4 binding to ubiquitylated proteins; also recorded: fully dependent on the ubiquitin-binding ability of the UFD1-NPL4 complex”. The “C1QBP in VCF1 IP” value [3] was “unable to detect C1QBP in VCF1 IPs”, the “interaction with histone H3” value [3] was “weak interaction between VCF1 and histone H3” and the “VCF1 molecules bound per p97 hexamer” value [4] was 2-3 molecules per p97 hexamer. The “effect on p97-UFD1-NPL4-mediated unfolding of mEos3.2” value [5] was “did not accelerate the already highly efficient p97-UFD1-NPL4-mediated unfolding of poly-ubiquitylated mEos3.2 in vitro”.
